In patent publication US8362064B2, “Sulfonamide compounds for the treatment of respiratory disorders” (Pulmagen Theraputics (Inflammation) Limited, priority 2008, dated 2013):
Like-named read-outs stand apart in the source and are kept apart here. Marks after values point to notes of the source that are not given here. Each block holds one compound with its values, some of them ahead of it.

Assays:
[1] = target: T1, human PPARγ (Homo sapiens, UniProt P37231); assay: Human PPAR gamma agonist activity, GAL4-luciferase transactivation in transfected HEK-293 cells; type: cell-based; details: fold increase in gene transactivation (luciferase), 18 hours incubation, classes at 10 μM or 1 μM
T1 construct: expressed in transfected cells; host or cells: HEK-293 (Human Embryonic Kidney) cells
T1 sequence (P37231 1-505): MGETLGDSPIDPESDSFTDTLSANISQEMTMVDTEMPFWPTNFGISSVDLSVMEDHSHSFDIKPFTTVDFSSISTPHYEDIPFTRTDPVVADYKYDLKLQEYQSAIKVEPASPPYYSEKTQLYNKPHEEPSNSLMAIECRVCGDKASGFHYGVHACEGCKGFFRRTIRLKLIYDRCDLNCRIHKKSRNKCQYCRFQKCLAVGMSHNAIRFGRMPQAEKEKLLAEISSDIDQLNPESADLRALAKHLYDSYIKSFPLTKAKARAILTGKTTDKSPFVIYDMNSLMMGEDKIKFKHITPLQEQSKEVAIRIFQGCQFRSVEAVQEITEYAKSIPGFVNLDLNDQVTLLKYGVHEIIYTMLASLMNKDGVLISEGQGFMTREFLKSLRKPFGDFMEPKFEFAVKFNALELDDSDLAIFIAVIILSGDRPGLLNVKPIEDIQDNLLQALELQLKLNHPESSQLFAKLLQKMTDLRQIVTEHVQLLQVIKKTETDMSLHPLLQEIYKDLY
Method: HEK-293 (Human Embryonic Kidney) cells were seeded at a density of 2.8×10^5 cells/well in a 6 well plate in DMEM +10% delipidated FBS medium and incubated at 37° C., 5% CO2. At 70-80% confluency cells were transfected with human pCDNA3.1E˜PPARγ+pGL2˜GAL4x5˜Luc+pADV plasmids for 3 hours (ratio 2:0.25:1.25 μg/well). The transfection medium was then replaced with fresh medium and cells were incubated for 48 hours.
Varying final concentrations of compounds (vehicle=0.1% DMSO) of the invention were prepared in medium (50 μl/well) and added to the wells in a 96 well plate. Transfected cells were harvested and pelleted by centrifugation. The cell pellet was resuspended in medium and cells counted. 10,000 cells/well were added to the 96 well plate containing compounds of the invention and incubated for 18 hours. Luminescence produced following agonism of the PPAR gamma receptor was determined using Packard luciferase substrate reagent (100 μl/well). Light emission was quantified by counting SPC mode using a Top Count. Fold activation was calculated using the following formula: […]
All compounds show activity as PPAR gamma agonists at 30 μM. Key for relative activity: • *<8 fold increase in gene transactivation with 10 μM • **>8 fold increase in gene transactivation with 10 μM • ***>8 fold increase in gene transactivation with 1 μM.

[2] = test system: TS induced BAL neutrophil influx; assay: Pre-clinical mouse model of COPD inflammation (tobacco smoke induced pulmonary inflammation), BAL neutrophil counts; type: in vivo; details: mice; for Inhibition of TS induced BAL neutrophil influx: BAL 24 h after final TS; for TS induced influx of neutrophils in the BAL (in words): administered by a surrogate route for inhalation (intra-nasal)
Method: Protocols for the exposure of mice to TS, obtaining bronchoalveolar lavage (BAL), preparation of cytospin slides for differential cell counts are as outlined below.
In this exposure protocol, mice were exposed in groups of 5 in individual clear polycarbonate chambers (27 cm×16 cm×12 cm). The TS from the cigarettes was allowed to enter the exposure chambers at a flow rate of 100 mL/min. In order to minimize any potential problems caused by repeated exposure to a high level of TS (6 cigarettes), the exposure of the mice to TS was increased gradually over the exposure period to a maximum of 6 cigarettes. The exposure schedule used for 4 days was as follows:
A further group of mice was exposed to air on a daily basis for an equivalent length of time as controls (no TS exposure).
Bronchoalveolar lavage was performed as follows: the trachea was cannulated using a Portex nylon intravenous cannula (pink luer fitting) shortened to approximately 8 mm. Phosphate buffered saline (PBS) was used as the lavage fluid. A volume of 0.4 mL was gently instilled and withdrawn 3 times using a 1 mL syringe and then placed in an Eppendorf tube and kept on ice prior to subsequent determinations.
Lavage fluid was separated from cells by centrifugation and the supernatant decanted and frozen for subsequent analysis. The cell pellet was re-suspended in a known volume of PBS and total cell numbers calculated by counting a stained (Turks stain) aliquot under a microscope using a haemocytometer.
The residual cell pellet was diluted to approximately 10^5 cells per mL. A volume of 500 μL was placed in the funnel of a cytospin slide and centrifuged for 8 min at 800 rpm. The slide was air dried and stained using ‘Kwik-Diff’ solutions (Shandon) as per the proprietary instructions. When dried and cover-slipped, differential cells were counted using light microscopy. Up to 400 cells were counted by unbiased operator using light microscopy. Cells were differentiated using standard morphometric techniques.
Mice were dosed intra-nasally (surrogate for oral inhalation) with vehicle (0.2% tween 80 in saline), Example 1 (0.1 mg/kg), Example 10 (0.1 mg/kg), Example 10 (0.03 mg/kg), or Example 10 (0.01 mg/kg), at 3 hours prior to tobacco smoke exposure each day. The control group of mice received vehicle 3 hrs prior to being exposed to air daily for a maximum of 50 minutes per day. BAL was performed 24 h following the final TS exposure.
In a separate experiment, mice were dosed intra-nasally (surrogate for oral inhalation) with either vehicle (0.2% tween 80 in saline), Example 7 (0.1 mg/kg), Compound 7 (0.03 mg/kg), Example 15 (0.1 mg/kg), or Example 15 (0.03 mg/kg), 1 hour prior to tobacco smoke exposure each day. The control group of mice received vehicle 1 hr prior to being exposed to air daily for a maximum of 50 minutes per day. BAL was performed 24 h following the final TS exposure.
All results are presented as individual data points for each animal and the mean value was calculated for each group. Since tests for normality were positive the data was subjected to a one way analysis of variance test (ANOVA), followed by a Bonferroni correction for multiple comparisons in order to test for significance between treatment groups. A “p” value of <0.05 was considered to be statistically significant. Percentage inhibitions were automatically calculated within the Excel spreadsheets for the cell data using the formula below:
[formula] Inhibition data for other parameters were calculated manually using the above formula.

[3] = In vivo pharmacokinetic study, plasma AUC after oral and i.v. dosing; design: species or system male Wistar rats; details: for plasma AUC following i.v. dosing (in words) / oral bioavailability (in words) / AUC: rat; for oral bioavailability (in words): oral vs i.v. plasma AUC; for AUC: plasma
Method: The suitability of the compounds exemplified in Examples 7, 10 and 15 above for inhalation for the treatment of lung diseases was examined by standard in vivo pharmacokinetic studies using male Wistar rats as known in the art. […] A single 1 mg/kg dose of Example 7, Example 10 and Example 15 was administered in 10% DMSO, 10% Cremophor ELP, 10% PEG 400, 10% EtOH and 60% Milli Q Water by the intravenous (IV) route and plasma samples taken 15 minutes, 30 minutes, 1 hour, 2 hours, 3 hours, 5 hours, 8 hours, 10 hours and 24 hours. Concentrations of Example 7, Example 10 and Example 15 in the various plasma samples were determined using standard analytical procedures.
Standard pharmacokinetic parameters following IV or oral dosing were calculated from the plasma concentration data, including Area under the curve (AUC), maximum plasma concentration (Cmax), time of maximum plasma concentration (Tmax), Elimination time (Kel) and plasma half-life (T½).
Compounds suitable for inhalation for the treatment of lung diseases have low plasma AUC following i.v. dosing indicating reduced likelihood of systemic side effects. Compounds suitable for inhalation for the treatment of lung diseases also have low oral bioavailability indicated by a much lower plasma AUC following oral dosing as that achieved by i.v. dosing. Low oral bioavailability leads to only a small fraction of the swallowed drug following inhalation being absorbed into the plasma, further reducing the likelihood of systemic side effects.

[4] = rat, cited from earlier work
[5] = 0.1 mg/kg intra-nasally 3 hours prior to TS exposure each day for 4 days
[6] = 0.03 mg/kg intra-nasally 1 hour prior to TS exposure each day for 4 days
[7] = 0.1 mg/kg intra-nasally 1 hour prior to TS exposure each day for 4 days
[8] = iv, male Wistar rats, single 1 mg/kg i.v. dose, read-out: Plasma AUC following 1 mg/kg i.v. dose
[9] = male Wistar rats, derived from 5 mg/kg oral dose PK data, read-out: Plasma AUC following 1 mg/kg oral dose

melting point: 152 to 153 °C
SMILES: Cc1ccc(-n2cc(Oc3ccc(NS(=O)(=O)c4ccc(Cl)cc4Cl)cc3)cn2)cc1 [Example 1, 2,4-dichloro-N-[4-(1-p-tolyl-1H-pyrazol-4-yloxy)-phenyl]benzene sulfonamide]
PPARγ agonist activity [1]: *** (>8 fold increase in gene transactivation with 1 μM) | Inhibition of TS induced BAL neutrophil influx [2, 5]: 72% | TS induced influx of neutrophils in the BAL (in words) [2]: significantly inhibit

SMILES: O=S(=O)(Nc1cc(Cl)c(Oc2cnn(-c3ccc(F)cc3F)c2)c(Cl)c1)c1ccc(Cl)cc1Cl [Example 3]
PPARγ agonist activity [1]: *** (>8 fold increase in gene transactivation with 1 μM)

SMILES: O=S(=O)(Nc1cc(Cl)c(Oc2cnn(-c3ccc(F)cc3)c2)c(Cl)c1)c1ccc(Cl)cc1Cl [Example 4]
PPARγ agonist activity [1]: *** (>8 fold increase in gene transactivation with 1 μM)

SMILES: O=S(=O)(Nc1ccc(Oc2cnn(-c3ccc(F)cc3)c2)c(Cl)c1)c1ccc(Cl)cc1Cl [Example 5]
PPARγ agonist activity [1]: *** (>8 fold increase in gene transactivation with 1 μM)

SMILES: O=S(=O)(Nc1ccc(Oc2cnn(-c3ccc(Cl)cc3)c2)c(Cl)c1)c1ccc(Cl)cc1Cl [Example 6]
PPARγ agonist activity [1]: *** (>8 fold increase in gene transactivation with 1 μM)

plasma AUC following i.v. dosing (in words) [3]: low | oral bioavailability (in words) [3]: low | AUC [3, 8]: 1080 ± 240 ng·h/mL | AUC [3, 9]: 40 ± 8 ng·h/mL
SMILES: O=S(=O)(Nc1ccc(Oc2cnn(-c3ccc(F)c(Cl)c3)c2)c(Cl)c1)c1ccc(Cl)cc1Cl [Example 7]
PPARγ agonist activity [1]: ** (>8 fold increase in gene transactivation with 10 μM) | Inhibition of TS induced BAL neutrophil influx [2, 6]: 37% | Inhibition of TS induced BAL neutrophil influx [2, 7]: 64% | TS induced influx of neutrophils in the BAL (in words) [2]: significantly inhibit

SMILES: Cc1ccc(S(=O)(=O)Nc2ccc(Oc3cnn(-c4ccc(F)cc4)c3)c(Cl)c2)cc1 [Example 8]
PPARγ agonist activity [1]: ** (>8 fold increase in gene transactivation with 10 μM)

SMILES: Cc1cc(NS(=O)(=O)c2ccc(Cl)cc2Cl)ccc1Oc1cnn(-c2ccc(F)cc2)c1 [Example 9]
PPARγ agonist activity [1]: *** (>8 fold increase in gene transactivation with 1 μM)

Plasma AUC following 1 mg/kg oral dose ([3]; male Wistar rats, oral gavage (5 mg/kg given), limit of detection was 5 ng/ml): None | plasma AUC following i.v. dosing (in words) [3]: low | oral bioavailability (in words) [3]: low | AUC [3, 8]: 210 ± 60 ng·h/mL
SMILES: Cc1ccc(-n2cc(Oc3ccc(NS(=O)(=O)c4ccc(Cl)cc4Cl)cc3)cn2)c(C)c1 [Example 10]
PPARγ agonist activity [1]: *** (>8 fold increase in gene transactivation with 1 μM) | Inhibition of TS induced BAL neutrophil influx ([2]; 0.01 mg/kg intra-nasally 3 hours prior to TS exposure each day for 4 days): 42% | Inhibition of TS induced BAL neutrophil influx ([2]; 0.03 mg/kg intra-nasally 3 hours prior to TS exposure each day for 4 days): 50% | Inhibition of TS induced BAL neutrophil influx [2, 5]: 72% | TS induced influx of neutrophils in the BAL (in words) [2]: significantly inhibit

SMILES: Cc1ccc(-n2cc(Oc3ccc(NS(=O)(=O)c4ccc(C)cc4)cc3)cn2)cc1 [Example 11]
PPARγ agonist activity [1]: * (<8 fold increase in gene transactivation with 10 μM)

SMILES: O=S(=O)(Nc1ccc(Oc2cnn(-c3ccc(F)cc3)c2)c(Cl)c1)c1ccccc1 [Example 12]
PPARγ agonist activity [1]: * (<8 fold increase in gene transactivation with 10 μM)

SMILES: O=S(=O)(Nc1ccc(Oc2cnn(-c3ccccc3)c2)c(Cl)c1)c1ccc(Cl)cc1Cl [Example 13]
PPARγ agonist activity [1]: *** (>8 fold increase in gene transactivation with 1 μM)

SMILES: Cc1ccc(S(=O)(=O)Nc2ccc(Oc3cnn(-c4ccc(C)cc4C)c3)cc2)cc1 [Example 14]
PPARγ agonist activity [1]: * (<8 fold increase in gene transactivation with 10 μM)

plasma AUC following i.v. dosing (in words) [3]: low | oral bioavailability (in words) [3]: low | AUC [3, 8]: 170 ± 60 ng·h/mL | AUC [3, 9]: 1 ± 2 ng·h/mL
SMILES: Cc1ccc(S(=O)(=O)Nc2ccc(Oc3cnn(-c4ccc(C)cc4C)c3)c(Cl)c2)cc1 [Example 15]
PPARγ agonist activity [1]: ** (>8 fold increase in gene transactivation with 10 μM) | Inhibition of TS induced BAL neutrophil influx [2, 6]: 66% | Inhibition of TS induced BAL neutrophil influx [2, 7]: 69% | TS induced influx of neutrophils in the BAL (in words) [2]: significantly inhibit

SMILES: CN(CCOc1ccc(CC2SC(=O)NC2=O)cc1)c1ccccn1 (stereo not shown) [Rosiglitazone]
plasma AUC following an i.v. dose (in words) ([4]; i.v.): high | oral bioavailability (in words) ([4]; oral vs i.v. plasma AUC): high | Plasma AUC following 1 mg/kg i.v. dose ([4]; FDA Pharmacology review data, derived from 0.4 mg/kg i.v. dose PK data): 13.75*** μg*hr/ml | Plasma AUC following 1 mg/kg oral dose ([4]; FDA Pharmacology review data, derived from 0.4 mg/kg oral dose PK data): 14.28*** μg*hr/ml
